Laboratory results published in ChEMBL document CHEMBL4118122, “Identification and biological evaluation of thiazole-based inverse agonists of RORγt” (Bioorg Med Chem Lett, 2018).

Assays:
[1] = target: Adenosine receptor A1 (Homo sapiens) (UniProt P30542); assay: Displacement of [3H]-DPCPX from human recombinant adenosine A1 receptor at 10 uM after 60 mins by scintillation counting analysis relative to control
[2] = target: T1, Adrenergic receptor alpha-1 (Rattus norvegicus) (UniProt P15823+P23944+P43140); assay: Displacement of [3H]-prazosin from rat alpha1 adrenoceptor at 10 uM after 60 mins by scintillation counting analysis relative to control; type: protein assay
[3] = target: Muscarinic acetylcholine receptor M2 (Homo sapiens) (UniProt P08172); assay: Displacement of [3H]AF-DX 384 from human recombinant M2 receptor at 10 uM after 60 mins by scintillation counting analysis relative to control
Nociceptin receptor = Nociceptin receptor (Homo sapiens, UniProt P41146); assay: Displacement of [3H]nociceptin from human recombinant NOP receptor at 10 uM after 60 mins by scintillation counting analysis relative to control
Vasopressin V1a receptor = Vasopressin V1a receptor (Homo sapiens, UniProt P37288); assay: Displacement of [3H]AVP from human recombinant V1a receptor at 10 uM after 60 mins by scintillation counting analysis relative to control
[4] = target: Sodium-dependent dopamine transporter (Homo sapiens) (UniProt Q01959); assay: Displacement of [3H][…] from recombinant human Dopamine transporter at 10 uM after 120 mins by scintillation counting analysis relative to control
[5] = target: T1, Adrenergic receptor alpha-1 (Rattus norvegicus); assay: Displacement of [3H]-prazosin from rat alpha1 adrenoceptor at 1 uM after 60 mins by scintillation counting analysis relative to control; type: protein assay
Mu-type opioid receptor = Mu-type opioid receptor (Homo sapiens, UniProt P35372); assay: Displacement of [3H]DAMGO from human recombinant mu receptor after 120 mins by scintillation counting analysis
[6] = target: Calcium/calmodulin-dependent protein kinase type 1D (Homo sapiens) (UniProt Q8IU85); assay: Inhibition of CaMK1delta (unknown origin) at 10 uM in presence of ATP relative to control
Sequence of Calcium/calmodulin-dependent protein kinase type 1D (Homo sapiens) (Q8IU85 whole entry, looked up): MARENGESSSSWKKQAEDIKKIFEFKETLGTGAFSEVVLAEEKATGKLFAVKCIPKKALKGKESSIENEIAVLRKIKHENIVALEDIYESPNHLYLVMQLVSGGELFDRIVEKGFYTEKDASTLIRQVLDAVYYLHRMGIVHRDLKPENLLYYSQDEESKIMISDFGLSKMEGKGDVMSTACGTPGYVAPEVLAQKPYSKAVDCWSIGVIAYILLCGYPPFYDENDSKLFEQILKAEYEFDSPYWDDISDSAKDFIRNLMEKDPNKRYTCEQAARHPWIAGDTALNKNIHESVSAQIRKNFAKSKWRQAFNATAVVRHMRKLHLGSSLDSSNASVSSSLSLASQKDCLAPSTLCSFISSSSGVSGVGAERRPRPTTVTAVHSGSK

Sequence of Adenosine receptor A1 (Homo sapiens) (P30542 whole entry): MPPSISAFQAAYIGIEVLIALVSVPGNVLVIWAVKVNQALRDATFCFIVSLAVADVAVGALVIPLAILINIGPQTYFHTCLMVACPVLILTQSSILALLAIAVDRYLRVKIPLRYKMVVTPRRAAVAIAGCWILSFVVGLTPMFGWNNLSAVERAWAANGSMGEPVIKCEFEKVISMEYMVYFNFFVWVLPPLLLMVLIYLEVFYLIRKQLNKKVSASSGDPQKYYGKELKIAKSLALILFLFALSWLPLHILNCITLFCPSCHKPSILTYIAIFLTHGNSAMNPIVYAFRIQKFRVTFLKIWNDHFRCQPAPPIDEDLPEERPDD
Sequence of Sodium-dependent dopamine transporter (Homo sapiens) (Q01959 whole entry): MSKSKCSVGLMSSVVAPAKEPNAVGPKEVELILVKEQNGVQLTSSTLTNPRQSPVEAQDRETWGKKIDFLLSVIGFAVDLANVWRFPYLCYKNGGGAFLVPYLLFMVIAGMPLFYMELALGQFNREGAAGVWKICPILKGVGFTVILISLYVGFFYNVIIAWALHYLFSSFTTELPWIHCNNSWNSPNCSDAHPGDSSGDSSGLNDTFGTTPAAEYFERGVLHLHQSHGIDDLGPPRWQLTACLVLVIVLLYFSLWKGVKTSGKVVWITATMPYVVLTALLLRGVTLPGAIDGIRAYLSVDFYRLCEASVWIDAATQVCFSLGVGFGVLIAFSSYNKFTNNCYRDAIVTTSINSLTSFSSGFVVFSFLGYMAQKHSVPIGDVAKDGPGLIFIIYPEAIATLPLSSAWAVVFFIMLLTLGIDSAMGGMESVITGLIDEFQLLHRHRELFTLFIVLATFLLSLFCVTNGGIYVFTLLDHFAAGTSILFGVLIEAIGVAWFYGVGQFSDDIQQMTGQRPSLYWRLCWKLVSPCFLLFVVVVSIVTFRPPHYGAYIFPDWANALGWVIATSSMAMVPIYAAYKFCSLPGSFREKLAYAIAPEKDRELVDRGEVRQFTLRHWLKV
Sequence of Muscarinic acetylcholine receptor M2 (Homo sapiens) (P08172 whole entry): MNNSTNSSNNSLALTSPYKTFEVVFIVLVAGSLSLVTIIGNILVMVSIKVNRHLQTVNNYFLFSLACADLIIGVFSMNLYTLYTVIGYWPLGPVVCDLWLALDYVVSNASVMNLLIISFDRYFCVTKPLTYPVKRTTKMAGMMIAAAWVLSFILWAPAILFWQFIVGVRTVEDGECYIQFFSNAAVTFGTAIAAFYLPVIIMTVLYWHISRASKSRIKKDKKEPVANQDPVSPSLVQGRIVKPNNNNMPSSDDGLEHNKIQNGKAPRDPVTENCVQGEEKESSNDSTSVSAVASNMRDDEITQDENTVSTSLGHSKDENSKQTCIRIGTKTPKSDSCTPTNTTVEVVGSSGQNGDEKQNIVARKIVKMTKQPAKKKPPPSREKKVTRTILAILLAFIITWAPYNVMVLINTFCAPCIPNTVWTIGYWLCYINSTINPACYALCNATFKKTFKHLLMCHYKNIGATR
Sequence of Nociceptin receptor (P41146 whole entry): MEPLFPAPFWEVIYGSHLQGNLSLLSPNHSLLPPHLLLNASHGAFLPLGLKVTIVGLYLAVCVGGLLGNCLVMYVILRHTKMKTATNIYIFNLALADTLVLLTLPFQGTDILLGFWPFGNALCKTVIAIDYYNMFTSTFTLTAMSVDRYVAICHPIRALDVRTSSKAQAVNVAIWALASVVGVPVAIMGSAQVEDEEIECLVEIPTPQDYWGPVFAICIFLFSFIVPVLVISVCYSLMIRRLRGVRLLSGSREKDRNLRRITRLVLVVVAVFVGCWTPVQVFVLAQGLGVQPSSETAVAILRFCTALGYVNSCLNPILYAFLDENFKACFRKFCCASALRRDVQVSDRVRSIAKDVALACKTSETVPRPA
Sequence of Vasopressin V1a receptor (P37288 whole entry, looked up): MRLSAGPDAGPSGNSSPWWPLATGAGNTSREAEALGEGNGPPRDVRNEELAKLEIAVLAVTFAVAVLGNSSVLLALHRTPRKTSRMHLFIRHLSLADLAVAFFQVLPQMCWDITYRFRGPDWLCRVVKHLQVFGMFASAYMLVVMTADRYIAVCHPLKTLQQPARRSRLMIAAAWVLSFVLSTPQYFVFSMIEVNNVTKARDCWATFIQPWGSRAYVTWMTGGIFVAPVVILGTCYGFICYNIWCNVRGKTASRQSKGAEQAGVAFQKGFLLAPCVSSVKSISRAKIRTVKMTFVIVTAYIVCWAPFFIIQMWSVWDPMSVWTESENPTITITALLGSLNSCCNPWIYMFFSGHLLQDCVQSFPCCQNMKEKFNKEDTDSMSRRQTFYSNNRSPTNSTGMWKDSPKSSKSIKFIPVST
Sequence of Mu-type opioid receptor (P35372 whole entry): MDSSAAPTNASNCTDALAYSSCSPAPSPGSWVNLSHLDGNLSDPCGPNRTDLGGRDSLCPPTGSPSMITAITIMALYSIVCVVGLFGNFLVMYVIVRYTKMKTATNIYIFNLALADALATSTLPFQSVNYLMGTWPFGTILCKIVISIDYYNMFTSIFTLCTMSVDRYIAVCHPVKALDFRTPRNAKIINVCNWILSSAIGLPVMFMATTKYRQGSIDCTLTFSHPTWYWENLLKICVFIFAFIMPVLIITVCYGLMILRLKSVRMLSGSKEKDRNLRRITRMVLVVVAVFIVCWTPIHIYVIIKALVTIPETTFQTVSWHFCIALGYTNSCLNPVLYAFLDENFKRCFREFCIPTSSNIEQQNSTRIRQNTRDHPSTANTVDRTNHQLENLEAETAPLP

Q: Which inhibition [1] does the source give for `CC(C)(C)NS(=O)(=O)c1ccc(-c2sc(C(=O)N[C@H]3C[C@H](C(=O)O)C3)nc2CC2CCCCC2)c2ccccc12` here?
A: Its inhibition is less than 10%.

Q: What about the inhibition [2] of the same compound?
A: The inhibition was less than 10%.

Q: What about the inhibition [3] of the same compound?
A: Its inhibition is 12%.

Q: And the inhibition (Nociceptin receptor)?
A: The inhibition was less than 10%.

Q: And the inhibition (Vasopressin V1a receptor)?
A: Its inhibition is 10%.

Q: What about the inhibition [4] of the same compound?
A: Its inhibition is 47%.

Q: And the inhibition [5]?
A: Its inhibition is less than 10%.

Q: What about the IC50 (Mu-type opioid receptor) of the same compound?
A: The IC50 was 1.1 nM.

Q: And the inhibition [6]?
A: The inhibition was 11%.
